Assay results from PubChem BioAssay AID330 (DTP/NCI, 2004).
“And” between values parts separate entries of the source, which are not always exact repeats. Identical values can stand only once. Inconclusive results and toxic doses are left out. The calls were made as follows: active = survival T/C of 150% or more; inactive = T/C below 125% in these data.

Tested on: P388 leukemia ip, CD2F1 mice, survival T/C
Test: NCI In Vivo Anticancer Drug Screen. Data for tumor model P388 Leukemia (intraperitoneal) in CD2F1 (CDF1) mice
Conditions: endpoint: median survival time, higher = longer survival
Procedure, shortened: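 Mice carrying the transplanted tumor received test compound or vehicle. Survival was recorded in each group, and the value is the treated-group measurement divided by that of the vehicle-treated control group.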

[1] = dose: 50.0 mg/kg/injection, schedule: Q01DX005 (ip), vehicle: saline
[2] = dose: 100.0 mg/kg/injection, schedule: Q01DX005 (ip), vehicle: saline
[3] = dose: 100.0 mg/kg/injection, schedule: Q04DX002 (ip), vehicle: saline with Tween-80
[4] = dose: 200.0 mg/kg/injection, schedule: Q04DX002 (ip), vehicle: saline with Tween-80
[5] = dose: 50.0 mg/kg/injection, schedule: Q01DX009 (ip), vehicle: Klucel (hydroxypropylcellulose) (HPC)
[6] = dose: 100.0 mg/kg/injection, schedule: Q01DX009 (ip), vehicle: Klucel (hydroxypropylcellulose) (HPC)
[7] = dose: 200.0 mg/kg/injection, schedule: Q01DX009 (ip), vehicle: Klucel (hydroxypropylcellulose) (HPC)
[8] = dose: 60.0 mg/kg/injection, schedule: Q01DX005 (ip), vehicle: Klucel (hydroxypropylcellulose) (HPC)
[9] = dose: 120.0 mg/kg/injection, schedule: Q01DX005 (ip), vehicle: Klucel (hydroxypropylcellulose) (HPC)
[10] = dose: 240.0 mg/kg/injection, schedule: Q01DX005 (ip), vehicle: Klucel (hydroxypropylcellulose) (HPC)
[11] = dose: 3.75 mg/kg/injection, schedule: Q01DX005 (ip), vehicle: saline with Tween-80
[12] = dose: 7.5 mg/kg/injection, schedule: Q01DX005 (ip), vehicle: saline with Tween-80
[13] = dose: 15.0 mg/kg/injection, schedule: Q01DX005 (ip), vehicle: saline with Tween-80
[14] = dose: 30.0 mg/kg/injection, schedule: Q01DX005 (ip), vehicle: saline with Tween-80
[15] = dose: 60.0 mg/kg/injection, schedule: Q01DX005 (ip), vehicle: saline with Tween-80
[16] = dose: 120.0 mg/kg/injection, schedule: Q01DX005 (ip), vehicle: saline with Tween-80
[17] = dose: 100.0 mg/kg/injection, schedule: Q04DX003 (ip), vehicle: saline
[18] = dose: 50.0 mg/kg/injection, schedule: Q01DX005 (ip), vehicle: Klucel (hydroxypropylcellulose) (HPC)
[19] = dose: 100.0 mg/kg/injection, schedule: Q01DX005 (ip), vehicle: Klucel (hydroxypropylcellulose) (HPC)
[20] = dose: 200.0 mg/kg/injection, schedule: Q01DX005 (ip), vehicle: Klucel (hydroxypropylcellulose) (HPC)
[21] = dose: 50.0 mg/kg/injection, schedule: Q01DX009 (ip), vehicle: saline with Tween-80
[22] = dose: 100.0 mg/kg/injection, schedule: Q01DX009 (ip), vehicle: saline with Tween-80
[23] = dose: 200.0 mg/kg/injection, schedule: Q01DX009 (ip), vehicle: saline with Tween-80

Measured: T/C

CN1C(c2ccccc2)C2CSCC(C1c1ccccc1)C21NC(=O)NC1=O (stereo not drawn)
inactive: dose: 100.0 mg/kg/injection, schedule: Q01DX001 (ip), vehicle: saline with Tween-80 104 % of control | dose: 200.0 mg/kg/injection, schedule: Q01DX001 (ip), vehicle: saline with Tween-80 100 % of control | dose: 400.0 mg/kg/injection, schedule: Q01DX001 (ip), vehicle: saline with Tween-80 97 % of control

COc1cc2c(cc1C(C)c1ccc(OCC(=O)O)cc1)OCO2 (stereo not drawn)
inactive: dose: 50.0 mg/kg/injection, schedule: Q01DX005 (ip), vehicle: distilled water + Tween-80 96 % of control | dose: 100.0 mg/kg/injection, schedule: Q01DX005 (ip), vehicle: distilled water + Tween-80 105 % of control | dose: 200.0 mg/kg/injection, schedule: Q01DX005 (ip), vehicle: distilled water + Tween-80 100 % of control

CCN(CC)c1ccc(C(NCC2CCCCO2)C(Cl)(Cl)Cl)cc1 (stereo not drawn)
inactive: [1] 117 % of control | [2] 102 % of control | dose: 200.0 mg/kg/injection, schedule: Q01DX005 (ip), vehicle: saline 100 % of control

O=[N+]([O-])C(Br)(Br)S(=O)(=O)c1ccccc1
inactive: dose: 50.0 mg/kg/injection, schedule: Q01DX005 (ip), vehicle: saline with Tween-80 97 % of control | dose: 100.0 mg/kg/injection, schedule: Q01DX005 (ip), vehicle: saline with Tween-80 106 % of control

C=CCC1CCC(=O)NC1=O (stereo not drawn)
inactive: dose: 50.0 mg/kg/injection, schedule: Q04DX002 (ip), vehicle: saline with Tween-80 102 % of control | [3] 102 % of control | [4] 100 % of control | dose: 400.0 mg/kg/injection, schedule: Q04DX002 (ip), vehicle: saline with Tween-80 112 % of control

CCC(C)N(C(=O)c1ccccc1)c1ccccc1 (stereo not drawn)
inactive: dose: 12.5 mg/kg/injection, schedule: Q01DX009 (ip), vehicle: other 99 % of control and 106 % of control | dose: 12.5 mg/kg/injection, schedule: Q01DX009 (ip), vehicle: saline + Tween-80 + alcohol 101 % of control | dose: 25.0 mg/kg/injection, schedule: Q01DX009 (ip), vehicle: other 100 % of control and 102 % of control | dose: 25.0 mg/kg/injection, schedule: Q01DX009 (ip), vehicle: saline + Tween-80 + alcohol 104 % of control | dose: 50.0 mg/kg/injection, schedule: Q01DX009 (ip), vehicle: other 102 % of control | dose: 50.0 mg/kg/injection, schedule: Q01DX009 (ip), vehicle: saline + Tween-80 + alcohol 106 % of control

Cc1ccc(Nc2ccc(Nc3ccc(C)cc3)c3c2C(=O)c2cc(Cl)c(Cl)cc2C3=O)cc1
inactive: [5] 101 % of control and 93 % of control and 95 % of control | [6] 111 % of control and 89 % of control and 96 % of control | [7] 103 % of control and 105 % of control | dose: 400.0 mg/kg/injection, schedule: Q01DX009 (ip), vehicle: Klucel (hydroxypropylcellulose) (HPC) 98 % of control

c1ccc2c(NCCCNCCCNc3c4ccccc4nc4ccccc34)c3ccccc3nc2c1
inactive: dose: 0.63 mg/kg/injection, schedule: Q01DX009 (ip), vehicle: other 112 % of control | dose: 1.25 mg/kg/injection, schedule: Q01DX009 (ip), vehicle: other 102 % of control and 118 % of control | dose: 2.5 mg/kg/injection, schedule: Q01DX009 (ip), vehicle: other 112 % of control | dose: 5.0 mg/kg/injection, schedule: Q01DX009 (ip), vehicle: other 118 % of control | dose: 10.0 mg/kg/injection, schedule: Q01DX009 (ip), vehicle: other 110 % of control

CCOc1c(N=Nc2ccccc2OC)c(C)nn1C(=S)S
inactive: [8] 102 % of control | [9] 114 % of control | [10] 105 % of control

[Cu+2].[O-]/N=C/c1cccc(O)c1[O-].[O-]/N=C/c1cccc(O)c1[O-]
inactive: [11] 98 % of control | [12] 100 % of control | [13] 99 % of control and 104 % of control | [14] 102 % of control | [15] 99 % of control | [16] 92 % of control

[CH3][Ge]([CH3])([Cl])[c]1cc[c]([Ge]([CH3])([CH3])[Cl])cc1
inactive: dose: 3.12 mg/kg/injection, schedule: Q01DX009 (ip), vehicle: saline 96 % of control | dose: 6.25 mg/kg/injection, schedule: Q01DX009 (ip), vehicle: saline 94 % of control | dose: 12.5 mg/kg/injection, schedule: Q01DX009 (ip), vehicle: saline 113 % of control and 92 % of control | dose: 50.0 mg/kg/injection, schedule: Q01DX009 (ip), vehicle: saline 110 % of control | dose: 50.0 mg/kg/injection, schedule: Q04DX003 (ip), vehicle: saline 118 % of control | [17] 89 % of control

O=C(O)CCCCSCCCCCCSCCCCC(=O)O
inactive: [18] 106 % of control | [19] 105 % of control | [20] 107 % of control

O=C(Nc1ccc(N=Nc2ccc(S(=O)(=O)O)cc2)cc1)c1ccc(N=Nc2cc(S(=O)(=O)O)c3ccccc3c2O)cc1
inactive: [1] 110 % of control | [2] 104 % of control

CCOC(=O)NC(c1ccc(C(NC(=O)OCC)P(=O)(O)NC23CC4CC(CC(C4)C2)C3)cc1)P(=O)(O)NC12CC3CC(CC(C3)C1)C2 (stereo not drawn)
inactive: [15] 105 % of control | [16] 105 % of control | dose: 240.0 mg/kg/injection, schedule: Q01DX005 (ip), vehicle: saline with Tween-80 98 % of control

COc1ccc(C(C#N)C(=O)CCC(=O)C(C#N)c2ccc(OC)c(OC)c2)cc1OC (stereo not drawn)
inactive: [3] 106 % of control | [4] 98 % of control

CN(C)C=Nc1ccccc1C#N
inactive: [21] 105 % of control | [22] 106 % of control | [23] 97 % of control

Cc1ccc(/C=C2/C(=O)N(c3ccccc3)N=C2c2ccccc2)cc1
inactive: dose: 1.87 mg/kg/injection, schedule: Q01DX005 (ip), vehicle: saline with Tween-80 110 % of control | [11] 113 % of control | dose: 3.75 mg/kg/injection, schedule: Q01DX005 (ip), vehicle: saline 95 % of control | [12] 113 % of control | [13] 110 % of control | dose: 15.0 mg/kg/injection, schedule: Q01DX005 (ip), vehicle: saline 100 % of control | [14] 109 % of control | [15] 108 % of control

CCCN1c2c3c(O)c4c(O)c(C)c5c(c4c2O)C(=O)C(C)(O/C=C/C(OC)C(C)C(OC(C)=O)C(C)C(O)C(C)C(O)C(C)/C=C/C=C(/C)C(=O)N3C1C)O5 (stereo not drawn)
inactive: dose: 25.0 mg/kg/injection, schedule: Q01DX009 (ip), vehicle: Klucel (hydroxypropylcellulose) (HPC) 96 % of control | [5] 101 % of control | [6] 93 % of control | [7] 90 % of control

Cn1c(=O)c2c(nc(Cl)n2Cc2ccc([N+](=O)[O-])cc2)n(C)c1=O
inactive: [17] 95 % of control | dose: 200.0 mg/kg/injection, schedule: Q04DX003 (ip), vehicle: saline 92 % of control | dose: 400.0 mg/kg/injection, schedule: Q04DX003 (ip), vehicle: saline 90 % of control

CCOC(=O)c1cc([N+](=O)[O-])c[nH]1
inactive: [21] 97 % of control | [22] 96 % of control | [23] 95 % of control | dose: 400.0 mg/kg/injection, schedule: Q01DX009 (ip), vehicle: saline with Tween-80 89 % of control

CN1C(=O)N(C)[C@@H]2CC(=O)c3ccc(C(F)(F)F)cc3N2C1=O
inactive: [8] 101 % of control | [9] 107 % of control | [10] 103 % of control

Cc1cc(NCCCN(C)C)c2ccc3cc(NCCCN(C)C)c(C)nc3c2n1
inactive: dose: 25.0 mg/kg/injection, schedule: Q01DX009 (ip), vehicle: saline with Tween-80 96 % of control | [21] 104 % of control | [22] 102 % of control

CCOC(=O)CC(O)(c1ccc2c(c1)OCO2)c1cc(OC)c(OC)c(OC)c1 (stereo not drawn)
inactive: dose: 12.5 mg/kg/injection, schedule: Q01DX005 (ip), vehicle: Klucel (hydroxypropylcellulose) (HPC) 100 % of control | dose: 25.0 mg/kg/injection, schedule: Q01DX005 (ip), vehicle: Klucel (hydroxypropylcellulose) (HPC) 94 % of control | [18] 94 % of control | [19] 89 % of control | [20] 88 % of control
